The text below walks through data of patent US20220041559A1, “BENZO-AND PYRIDO-PYRAZOLES AS PROTEIN KINASE INHIBITORS” (ROTTAPHARM BIOTECH S.R.L., priority 2019, published 2022).

Series [1] is described as follows: Pharmacokinetics in CD1 mice, iv and po. It is filed as in vivo. The conditions noted are these: 3 mg/kg; for Kp: brain and plasma, read-out: B/P (brain to plasma ratio); for half-life: read-out: t½* (converted).
The next series relates to U87MG xenograft. Put plainly: Survival time of intracranial U87MG glioblastoma bearing mice. It is filed as in vivo, athymic Nude mice. To be noted: 50 mg/kg orally once a day, day 9 until day 19. On the procedure:
Human U87MG cancer cell line were implanted in athymic Nude mice by intracranial injection. Mice, divided into two groups, were orally dosed for 10 days either with vehicle or with Compound 5 (50 mg/kg, once a day) from the day 9 until day 19 after injection of tumour cells. The animal survival was tracked over time, mice were monitored for mortality and sacrificed at appearance of signs of distress, neurological deficits, seizure, or significant body weight loss (e.g. >20%).

For another series, the target named is T1, VEGFR2 (KDR) kinase (Homo sapiens, UniProt P35968).
T1 construct: purchased SignalChem
Description: ADP-Glo in vitro kinase assay, VEGFR2 kinase inhibition. It is filed as biochemical. The conditions noted are these: ATP 50 μM, 30 minutes at room temperature. In outline: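 VEGFR2 kinase at 0.5 ng/μl pre-incubated 15 min at room temperature with inhibitor (10^−11 to 3×10^−6 M, duplicates) in Tris pH 7.5 with MgCl2, BSA and DTT. Reaction started with substrate/ATP mix (ATP 50 μM, near Km), run 30 min at room temperature; ADP measured by ADP-Glo luminescence, IC50 from nonlinear fit of percent inhibition.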

Another series addresses T2, VEGFR (Homo sapiens, UniProt P35968).
T2 construct: endogenous in cells; host or cells: HUVEC-C
Description: Inhibition of VEGF-induced VEGFR (Y1175)-phosphorylation (cell-based assay, HUVEC-C). The conditions noted are these: VEGF 50 ng/ml, Western blot. On the procedure: HUVEC-C cells (Human Umbilical Vein Endothelial Cells from ATCC) were plated at 6×10^4 cells/well in 24 w microplates and grown adherent in medium F12K+0.1 mg/ml Heparin+0.05 mg/ml ECGS+10% FBS at 37° C. with 5% CO2. After 24 h, medium was removed and starvation was induced overnight in medium F12K+0.1 mg/ml Heparin+0.5% FBS (medium starvation). At the end of incubation, treatment of cells was performed by medium replacement and by adding fresh medium containing or not diluent or test compounds (DMSO 0.1% final concentration) diluted in medium starvation. After 1 hour, VEGF stimuli (diluted in medium starvation, 50 ng/ml final concentration) was added to each sample, with the exception of basal sample; plate was then incubated for 5 min at 37° C. with 5% CO2. At the end of the incubation, the medium was removed and cellular lysates were obtained by adding M-PER lysis buffer containing 1× Protease/Phosphatase inhibitors cocktail. Then, lysates were transferred into Eppendorf tubes, sonicated and stored at −80° C.
Lysates were analyzed by Western blot for VEGFR phosphorylation (Tyrosine 1175) and total receptor amount determination. Densitometric analysis of sample lanes were performed by ImageQuant TL software (GE Healthcare Life Sciences). […]

The target of a further series is EGFR (Homo sapiens, UniProt P00533). Description: Inhibition of EGF-induced EGFR (Y1068)-phosphorylation (cell-based assay, U87MG). The conditions noted are these: EGF 10 ng/ml, Western blot. Details: endogenous in cells; host or cells: U87MG. On the procedure:
U87MG cells (Uppsala 87 Malignant Glioma, a human glioblastoma cell line from ATCC) were plated at 3×10^5 cells/well in 12 w microplates and grown adherent in medium DMEM+10% FBS at 37° C. with 5% CO2. After 24 h, medium was removed and starvation was induced overnight in medium DMEM+0.1% FBS (medium starvation). At the end of incubation, treatment of cells was performed by medium replacement and by adding fresh medium containing or not diluent or test compounds (DMSO 0.1% final concentration) diluted in medium starvation. After 1 hour, EGF stimuli (diluted in medium starvation, 10 ng/ml final concentration) was added to each sample, with the exception of basal sample; plate was then incubated for 15 min at 37° C. with 5% CO2. At the end of the incubation, the medium was removed and cellular lysates were obtained by adding M-PER lysis buffer containing 1× Protease/Phosphatase inhibitors cocktail. Then, lysates were transferred into Eppendorf tubes, sonicated and stored at −80° C.
Protein content was measured by Bradford method. Lysates were analyzed by Western blot for EGFR phosphorylation (Tyrosine 1068) and total receptor amount determination. Densitometric analysis of sample lanes were performed by ImageQuant TL software (GE Healthcare Life Sciences). […]

Like-named read-outs stand apart in the source and are kept apart here.

T1 sequence (P35968 20-1356): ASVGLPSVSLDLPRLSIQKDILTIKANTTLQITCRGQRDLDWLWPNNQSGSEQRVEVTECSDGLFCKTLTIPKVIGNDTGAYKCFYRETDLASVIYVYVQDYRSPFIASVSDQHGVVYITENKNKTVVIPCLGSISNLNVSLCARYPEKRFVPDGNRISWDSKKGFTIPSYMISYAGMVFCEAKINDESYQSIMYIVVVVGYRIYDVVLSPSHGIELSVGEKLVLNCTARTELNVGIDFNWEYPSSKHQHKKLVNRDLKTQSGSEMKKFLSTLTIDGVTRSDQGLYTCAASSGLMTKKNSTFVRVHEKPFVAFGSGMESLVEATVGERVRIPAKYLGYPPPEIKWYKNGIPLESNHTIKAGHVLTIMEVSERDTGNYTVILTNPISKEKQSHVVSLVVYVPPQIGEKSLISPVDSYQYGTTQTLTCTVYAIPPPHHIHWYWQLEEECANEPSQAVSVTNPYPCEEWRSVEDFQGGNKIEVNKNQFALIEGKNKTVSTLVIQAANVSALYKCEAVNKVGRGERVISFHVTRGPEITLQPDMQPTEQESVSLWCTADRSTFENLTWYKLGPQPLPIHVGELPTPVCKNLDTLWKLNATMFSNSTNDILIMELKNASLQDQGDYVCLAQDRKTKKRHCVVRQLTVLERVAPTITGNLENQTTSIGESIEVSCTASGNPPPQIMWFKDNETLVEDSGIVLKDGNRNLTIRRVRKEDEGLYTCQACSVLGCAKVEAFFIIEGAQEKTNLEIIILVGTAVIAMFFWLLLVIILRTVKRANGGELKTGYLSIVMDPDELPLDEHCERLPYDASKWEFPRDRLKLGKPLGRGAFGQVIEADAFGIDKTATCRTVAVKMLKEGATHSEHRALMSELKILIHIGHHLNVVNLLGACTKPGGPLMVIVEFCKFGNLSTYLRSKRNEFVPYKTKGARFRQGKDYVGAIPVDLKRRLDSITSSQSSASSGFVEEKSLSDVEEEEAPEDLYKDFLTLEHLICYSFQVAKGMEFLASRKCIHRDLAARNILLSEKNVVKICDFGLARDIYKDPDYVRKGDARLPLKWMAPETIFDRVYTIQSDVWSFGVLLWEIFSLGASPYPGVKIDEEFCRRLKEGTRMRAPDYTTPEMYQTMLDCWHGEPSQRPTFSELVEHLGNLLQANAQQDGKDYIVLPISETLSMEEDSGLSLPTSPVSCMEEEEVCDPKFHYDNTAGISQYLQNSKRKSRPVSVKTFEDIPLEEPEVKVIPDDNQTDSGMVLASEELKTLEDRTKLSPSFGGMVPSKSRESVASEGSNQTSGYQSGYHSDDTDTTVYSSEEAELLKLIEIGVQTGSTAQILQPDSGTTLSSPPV
T2 sequence (P35968 20-1356): as above
EGFR, sequence (P00533 25-1210): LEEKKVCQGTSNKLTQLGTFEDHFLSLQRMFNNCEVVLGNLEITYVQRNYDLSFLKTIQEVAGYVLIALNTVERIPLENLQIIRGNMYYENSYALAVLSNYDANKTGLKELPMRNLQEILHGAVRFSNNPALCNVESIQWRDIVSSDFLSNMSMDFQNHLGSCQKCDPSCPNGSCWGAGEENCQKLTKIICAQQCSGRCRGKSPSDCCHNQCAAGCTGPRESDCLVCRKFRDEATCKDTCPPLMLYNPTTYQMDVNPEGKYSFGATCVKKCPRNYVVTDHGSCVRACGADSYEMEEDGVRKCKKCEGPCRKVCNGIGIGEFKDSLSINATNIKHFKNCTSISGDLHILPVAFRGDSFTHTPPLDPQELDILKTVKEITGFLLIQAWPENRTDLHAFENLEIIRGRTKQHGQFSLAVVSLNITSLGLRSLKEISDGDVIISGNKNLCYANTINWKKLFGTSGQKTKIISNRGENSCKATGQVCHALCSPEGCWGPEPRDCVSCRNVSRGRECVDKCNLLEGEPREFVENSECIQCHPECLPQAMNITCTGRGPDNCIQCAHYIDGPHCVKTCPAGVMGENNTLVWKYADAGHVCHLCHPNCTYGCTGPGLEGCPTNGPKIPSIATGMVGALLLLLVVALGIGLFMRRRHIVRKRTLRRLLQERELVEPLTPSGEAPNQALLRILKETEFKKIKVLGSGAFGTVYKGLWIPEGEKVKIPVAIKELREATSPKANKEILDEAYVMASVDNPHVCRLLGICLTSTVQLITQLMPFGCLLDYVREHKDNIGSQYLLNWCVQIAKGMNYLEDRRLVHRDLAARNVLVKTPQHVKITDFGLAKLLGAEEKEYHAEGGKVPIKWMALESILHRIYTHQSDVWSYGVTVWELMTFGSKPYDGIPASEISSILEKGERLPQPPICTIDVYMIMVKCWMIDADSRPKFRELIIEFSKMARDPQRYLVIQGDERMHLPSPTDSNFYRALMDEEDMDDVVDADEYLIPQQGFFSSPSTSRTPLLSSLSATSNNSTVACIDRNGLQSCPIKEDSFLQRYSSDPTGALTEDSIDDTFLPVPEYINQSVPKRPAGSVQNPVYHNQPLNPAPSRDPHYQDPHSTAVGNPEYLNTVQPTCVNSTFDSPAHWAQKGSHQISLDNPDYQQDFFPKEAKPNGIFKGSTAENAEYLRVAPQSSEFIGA

With `CN1CCC(c2ccc(C(=O)Nc3n[nH]c4nc(Nc5ccccc5F)ccc34)cc2)CC1` [Compound 5, N-(6-((2-fluorophenyl)amino)-1H-pyrazolo[3,4-b]pyridin-3-yl)-4-(1-methylpiperidin-4-yl)benzamide], the Tlast in series [1] (iv) turned out to be 24 h. The Kp in series [1] (mouse, calculated on AUC iv) is 1.2. In addition, the Kp in series [1] (mouse, calculated on AUC po) is 1.4. In addition, in series [1] (mouse, plasma, iv), the AUC(0-inf) amounted to 1.64 µg·h/mL, the AUC(0-t) turned out to be 1.62 µg·h/mL and the half-life is 3.9 h. Further, the clearance in series [1] (mouse, plasma, iv, read-out: CLp) turned out to be 1.82 L/h/kg. In addition, the Vd in series [1] (mouse, plasma, iv, read-out: Vz) came to 10.2 L/kg. Also, in series [1] (mouse, plasma, po), the AUC(0-inf) came out at 1.18 µg·h/mL, the AUC(0-t) worked out at 1.17 µg·h/mL, the highest level (Cmax) was 0.331 µM and the Tmax turned out to be 2 h. For the same molecule, in series [1] (mouse, plasma, po), the bioavailability worked out at 72% and the half-life is 4 h. In series [1] (po), this molecule displayed a Tlast of 24 h. The “median survival time from tumour cell injection” value in the series on U87MG xenograft worked out at 70 days. At VEGFR2 (KDR) kinase, this molecule returned an IC50 of 0.082 µM. Besides, the “Concentration from which maximal inhibitory activity on VEGFR-phosphorylation is shown” value on VEGFR is ≥ 1 µM. The molecule further showed an IC50 against EGFR of 3 µM.
